Test results reported in ChEMBL document CHEMBL6114999, “Natural pyrrolo[1,2-a]quinazolinone derivatives: Design, synthesis, characterization, and bio-evaluation as novel antiviral agents” (Eur J Med Chem, 2025).
Calls of active or inactive are those of the source. No cut-off for these calls is given here.

Key:
[1] = Cytotoxicity against human RD cells incubated for 48 hrs by MTT assay; type: toxicity, cell-based
Coxsackievirus B3 [2] = experiment: Antiviral activity against CVB3 infected in HEp-2 cells assessed as protection from virus-induced cytopathogenicity incubated for 48 hrs by MTT assay; type: functional, organism-based; settings: Enterovirus B, HEp-2, 48 h
[3] = Cytotoxicity against human HEp-2 cells incubated for 48 hrs by MTT assay; type: toxicity, cell-based
[4] = Selectivity index, ratio of CC50 for cytotoxicity against HEp-2 cells to EC50 for antiviral activity against CVB3 infected in HEp-2 cells; type: toxicity, cell-based; settings: human, read-out: Ratio CC50/EC50
Coxsackievirus B3 [5] = experiment: Antiviral activity against CVB3 infected in HEp-2 cells assessed as inhibition of virus-induced cell death at 200 uM incubated for 48 hrs by MTT assay; type: functional, organism-based
Enterovirus [6] = experiment: Antiviral activity against EV71 infected in human RD cells assessed as inhibition of virus-induced cell death at 200 uM incubated for 48 hrs by MTT assay; type: functional, organism-based; settings: 71
Enterovirus [7] = experiment: Antiviral activity against EV71 infected in human RD cells assessed as protection from virus-induced cytopathogenicity incubated for 48 hrs by MTT assay; type: functional, organism-based; settings: Enterovirus, 71, RD
[8] = Selectivity index, ratio of CC50 for cytotoxicity against human RD cells to EC50 for antiviral activity against EV71 infected in human RD cells; type: toxicity, cell-based; settings: read-out: Ratio CC50/EC50
Coxsackievirus B3 [9] = experiment: Antiviral activity against CVB3 infected in HEp-2 cells assessed as inhibition of virus-induced cell death at 100 uM incubated for 48 hrs by MTT assay relative to control; type: functional; settings: for inhibition at 100 µM: Enterovirus B, HEp-2, 48 h
Enterovirus [10] = experiment: Antiviral activity against EV71 infected in human RD cells assessed as inhibition of virus-induced cell death at 100 uM incubated for 48 hrs by MTT assay relative to control; type: functional, 71; settings: for inhibition at 100 µM: Enterovirus, 71, RD
Coxsackievirus B3 [11] = experiment: Antiviral activity against CVB3 infected in HEp-2 cells assessed as inhibition of virus-induced cell death at 25 uM incubated for 48 hrs by MTT assay relative to control; type: functional; settings: Enterovirus B
Coxsackievirus B3 [12] = experiment: Antiviral activity against CVB3 infected in HEp-2 cells assessed as inhibition of virus-induced cell death at 50 uM incubated for 48 hrs by MTT assay relative to control; type: functional; settings: Enterovirus B
Enterovirus [13] = experiment: Antiviral activity against EV71 infected in human RD cells assessed as inhibition of virus-induced cell death at 25 uM incubated for 48 hrs by MTT assay relative to control; type: functional; settings: Enterovirus, 71, RD
Enterovirus [14] = experiment: Antiviral activity against EV71 infected in human RD cells assessed as inhibition of virus-induced cell death at 50 uM incubated for 48 hrs by MTT assay relative to control; type: functional; settings: Enterovirus, 71, RD
Enterovirus [15] = experiment: Antiviral activity against EV71 infected in human RD cells assessed as protection from virus-induced cytopathogenicity by measuring reduction in progeny virus titer incubated for 48 hrs by MTT assay; type: functional, 71
Coxsackievirus B3 [16] = experiment: Antiviral activity against CVB3 infected in HEp-2 cells assessed as protection from virus-induced cytopathogenicity by measuring reduction in progeny virus titer incubated for 48 hrs by MTT assay; type: functional
Coxsackievirus B3 [17] = experiment: Antiviral activity against CVB3 infected in HEp-2 cells assessed as inhibition of virus-induced cell death at 25 to 100 uM incubated for 48 hrs by MTT assay; type: functional, organism-based; settings: dose 25-100 µM
Enterovirus [18] = experiment: Antiviral activity against EV71 infected in human RD cells assessed as inhibition of virus-induced cell death at 25 to 100 uM incubated for 48 hrs by MTT assay; type: functional, organism-based; settings: 71, dose 25-100 µM
RD = experiment: Inhibition of morphological changes in human RD cells infected with EV71 assessed as reduction in cytopathic effect at 50 to 100 uM measured after 48 hrs by Reed-Muench method; type: functional, cell-based; settings: Enterovirus, 71, dose 50-100 µM
HEp-2 = experiment: Inhibition of morphological changes in HEp-2 cells infected with CVB3 assessed as reduction in cytopathic effect at 50 to 100 uM measured after 48 hrs by Reed-Muench method; type: functional, cell-based; settings: Coxsackievirus B3, dose 50-100 µM
Enterovirus [19] = experiment: Antiviral activity against EV71 infected in human RD cells assessed as viral infection in cell at 50 uM incubated for 46.5 hrs by fluorescence microscopy (reference value: 80.67 %); type: functional, 71
Enterovirus [20] = experiment: Antiviral activity against EV71 infected in human RD cells assessed as viral infection in cell at 100 uM incubated for 46.5 hrs by fluorescence microscopy (reference value: 80.67 %); type: functional, 71
Enterovirus [21] = experiment: Antiviral activity against EV71 infected in human RD cells assessed as log reduction in viral replication at 100 uM incubated for 4 to 32 hrs by […] method; type: functional, 71; settings: time 4-32 hrs
Enterovirus [22] = experiment: Antiviral activity against EV71 infected in human RD cells assessed as inhibition of viral RNA synthesis at 100 uM incubated for 32 hrs by qRT-PCR analysis; type: functional, organism-based; settings: 71
Enterovirus [23] = experiment: Antiviral activity against EV71 infected in human RD cells assessed as reduction in viral protein translation at 100 uM incubated for 32 hrs by immunofluorescence analysis; type: functional, organism-based; settings: 71
Enterovirus [24] = experiment: Virucidal activity against EV71 infected in human RD cells at 100 uM pretreated compound with virus followed by inoculation of mixture into host cells measured after 2 days by Reed-Muench method; type: functional, organism-based; settings: 71, time 2.0 day
Enterovirus [25] = experiment: Antiviral activity against EV71 infected in human RD cells assessed as cell viability at 100 uM pre-infected with virus followed by compound treatment measured after 48 hrs post-infection by MTT assay relative to control; type: functional, 71
Enterovirus [26] = experiment: Antiviral activity against EV71 infected in human RD cells assessed as increase in cell viability at 3.125 to 100 uM preincubated with compound followed by viral infection measured after 48 hrs by MTT assay; type: functional, organism-based; settings: 71, dose 3.125-100 µM
Enterovirus [27] = experiment: Antiviral activity against EV71 infected in human RD cells assessed as increase in cell viability at 3.125 to 100 uM incubated with compound and virus measured after 48 hrs by MTT assay; type: functional, organism-based; settings: 71, dose 3.125-100 µM
Enterovirus [28] = experiment: Inhibition of EGFP-fused EV71 2Apro transfected in host cells co-expressing FLuc assessed as reduction in firefly luciferase activity incubated for 24 to 36 hrs by chemiluminescence analysis; type: cell-based; settings: 71, time 24-36 hrs
Enterovirus [29] = experiment: Inhibition of EV71 3Dpol assessed as decrease in RNA chain extension by polyacrylamide gel electrophoresis; settings: 71

Row | SMILES | CC50 at 48 h [1] | EC50 (Coxsackievirus B3 [2]) | CC50 at 48 h [3] | selectivity ratio [4] | inhibition (Coxsackievirus B3 [5]) | inhibition (Enterovirus [6]) | EC50 (Enterovirus [7]) | selectivity ratio [8] | inhibition at 100 µM (Coxsackievirus B3 [9]) | inhibition at 100 µM (Enterovirus [10]) | inhibition at 25 µM (Coxsackievirus B3 [11]) | inhibition at 50 µM (Coxsackievirus B3 [12]) | inhibition at 25 µM (Enterovirus [13]) | inhibition at 50 µM (Enterovirus [14]) | log(activity) (Enterovirus [15]) | log(activity) (Coxsackievirus B3 [16]) | antiviral activity call (active/inactive) (Coxsackievirus B3 [17]) | inhibition (Enterovirus [18]) | further results
1 | O=C1NC2(C(=O)O)CCC(=O)N2c2ccccc21 (configuration not stated) | 323 µM | 143 µM | 296 µM | 2.1 | Active; Compared To Ribavirin The Antiviral Effect Is Comparable Or Slightly Inferior | inactive |  |  |  |  |  |  |  |  |  |  |  |  | 
2 | NC(=O)c1ncn([C@@H]2O[C@H](CO)[C@@H](O)[C@H]2O)n1 [RIBAVIRIN] | 267 µM | 24.7 µM | 204 µM | 8.2 |  |  | 40.4 µM | 6.6 | 71% | 69.7% | 47.3% | 60.7% | 53.8% | 61.1% | 2.3 | 3.07 |  |  | Imax (Coxsackievirus B3 [9]): 71%; Imax (Enterovirus [10]): 62.33%
3 | CN1C(=O)c2ccccc2N2C(=O)CCC12C(=O)O (configuration not stated) | 327 µM | 152 µM | 276 µM | 1.8 | Active; Compared To Ribavirin The Antiviral Effect Is Comparable Or Slightly Inferior | inactive |  |  |  |  |  |  |  |  |  |  |  |  | 
4 | O=C1NC2(C(=O)O)CCC(=O)N2c2ccc(Cl)cc21 (configuration not stated) | 317 µM | 142 µM | 245 µM | 1.7 | Active; Compared To Ribavirin The Antiviral Effect Is Comparable Or Slightly Inferior | inactive |  |  |  |  |  |  |  |  |  |  |  |  | 
5 | CN1C(=O)c2ccccc2N2C(=O)CCC12C(=O)NCCc1c[nH]c2ccccc12 (configuration not stated) | 265 µM | 82 µM | 217 µM | 2.6 |  |  | 14.8 µM | 17.9 | 54.4% | 62.3% | 24.2% | 40.8% | 33% | 56.7% | ~2.73 | ~4.03 | Active | Active | inhibition (RD): Active; Compound Successfully Protected Host Cells From Pathological Changes Or Apoptosis; inhibition (HEp-2): Active; Compound Successfully Protected Host Cells From Pathological Changes Or Apoptosis; Activity (Enterovirus [19]): 22.66%; Activity (Enterovirus [20]): 5.34%; log(activity) (Enterovirus [21]): 3.25; inhibition (Enterovirus [22]): Active; Activity (Enterovirus [23]): Active; Activity (Enterovirus [24]): inactive; Activity (Enterovirus [25]): >80%; Activity (Enterovirus [26]): inactive; Activity (Enterovirus [27]): inactive; inhibition (Enterovirus [28]): Active; inhibition (Enterovirus [29]): inactive
6 | COC(=O)C(Cc1c[nH]c2ccccc12)NC(=O)C12CCC(=O)N1c1ccc(Cl)cc1C(=O)N2 (configuration not stated) | 158 µM | 55.6 µM | 171 µM | 3.1 |  |  | 24.8 µM | 6.4 | 63.7% | 74% | 36.6% | 45% | 60.6% | 75.3% |  |  | Active | Active | 
